# From US8618067B2, “L-sugar colon cleansing agent and uses thereof” (Aptalis Pharma US, Inc., priority 2009, dated 2013)
# Where “and” joins values, the source holds several entries; their conditions need not be identical. Equal values may be shown once.
# Assays:
# [1] = Dissolution of solid L-glucose forms in water with consumer-like stirring; assay type: physicochemical; conditions: for Time of stirring until sample fully dissolved: 53 g in 240 mL doubly distilled water
# Description: Each sample comprises approximately an equivalent amount of L-glucose on a weight basis. Carefully, to avoid agitation and mixing, doubly distilled water (240 mL) is added to each beaker. In one example, the solution is stirred immediately after addition of water. […] The stiffing was conducted in a manner duplicating the way a consumer is expected to stir a sample prior to use.
# colon [2] = conditions: 24-g single dose; Raymer scale; cited from earlier work
# colon [3] = test: Comparative Example 1: multicenter, double-blind, dose-range-finding study of L-glucose as colon-cleansing agent before colonoscopy; assay type: in vivo, human; conditions: single doses 12 g, 16 g, 20 g, 24 g; scale of Hsu et al.
# Description: A multicenter, double-blind, dose-range-finding study to evaluate the effectiveness and safety of L-glucose as a colon-cleansing agent before colonoscopy was conducted. Doses used in this study were 12 g, 16 g, 20 g, and 24 g. The assessment of the preparations was based on the scale used in Hsu et al., “Meta-analysis and cost comparison of polyethylene glycol lavage versus sodium phosphate for colonoscopy preparation,” Gastrointestinal Endoscopy 48(3):276-282, 1998, wherein small bits of fecal material in the colon were allowed in an “Excellent” score.
# colon [4] = test: Comparative Example 2: randomized, single-blind study of L-glucose as bowel preparation before colonoscopy (GPA scale); assay type: in vivo, human
# Description: (§1) Global Preparation Assessment
# (§2) Excellent=clean colon or small volume of clear liquid
# (§3) Good=moderate to large volume of clear to semiclear liquid
# (§4) Fair=some semisolid stool suctioned or washed away
# (§5) Poor=semisolid or solid stool unable to be suctioned or washed away
# A randomized, single-blind study designed to determine the clinical effectiveness of L-glucose as a bowel preparation before colonoscopy was performed. Three dose regimens were evaluated: 24 g in the evening only, 30 g in the evening only, and 24 g in the evening followed by 12 g in the morning (36 g total). Here, Applicant's GPA scale described herein was used to evaluate the preparations. […] Clinical efficacy (defined as a combination of “excellent” and “good” assessments) for the split-dose schedule was 19/27 (70%), as compared to 7/31 (23%) in the single-dose schedule (p<0.001).
# As noted above in the description of Applicant's GPA scale, the criteria for determining whether a preparation was deemed “excellent” or “good” was respectively defined as “clean colon or small volume of clear liquid” or “moderate to large volume of clear to semi-clear liquid.” These criteria are more stringent than the rating system used by Raymer et al. discussed supra since Raymer's “excellent” and “good” ratings were respectively defined as “no more than small bits of adherent fecal fluid” and “small amounts of feces or fluid not interfering with the examination.” Thus, Raymer's “excellent” rating would likely not qualify as even a “good” rating in Applicant's GPA scale.
# [5] = cited from earlier work
# [6] = cited from earlier work; remark: listed apart in the source
# colon [7] = test: Open-label, historically controlled, single-dose study of L-glucose as colon-cleansing agent before colonoscopy (Raymer et al.); assay type: in vivo, human; conditions: 24-g single dose; equivalent of the 80% success rating
# Description: For example, an open-label, historically controlled, single-dose study of a 24-g dose of L-glucose was conducted to determine the safety and effectiveness of L-glucose as a colon-cleansing agent before colonoscopy (Raymer et al., “An open-label trial of L-glucose as a colon-cleansing agent before colonoscopy,” Gastrointest Endosc 58(1):30-5, 2003).
# colon [8] = test: Example 3: open-label, 2-site dose-escalating split-dose study of L-glucose before colonoscopy (GPA and RSS); assay type: in vivo, human
# Excerpt: Applicants have relied upon a combination of a categorical, 4-point scale and a numerical, segmental scoring system to assess bowel cleansing quality (Balaban et al. “Low volume bowel preparation for colonoscopy: randomized, endoscopist-blinded trial of liquid sodium phosphate versus tablet sodium phosphate,” Am J Gastroenterol 98:827-32, 2003). The basic 4-point scale, known as the Global Preparation Assessment (GPA), is essentially the same as the original scale used in the first randomized controlled trial of PHOSPHO-SODA™ as a bowel cleansing agent published in 1990 by Vanner, et al. (“A randomized prospective trial comparing oral sodium phosphate with standard polyethylene glycol-based lavage solution (Golytely) in the preparation of patients for colonoscopy,” Am J Gastroenterol 85:422-7, 1990). The numerical scoring system, known as the Residual Stool Score (RSS), is a continuously variable, averaged segmental scoring instrument that assesses both the amount and consistency of residual stool before suctioning (a measure of the cathartic activity of the bowel cleansing regimen) as well as the percent of the bowel wall seen after washing and cleansing (a measure of the ultimate endpoint for bowel preparation success). The two scales are shown below.
# as §1, §2, §3, §4, §5
# This open-label, 2-site study employed a dose-escalating design using 3 split doses of L-glucose (24 g/24 g, 36 g/36 g, and 48 g/48 g). The doses were administered the night before and the morning of a scheduled colonoscopy. The study was conducted in Phase I facilities to control for administration of L-glucose and adherence to the dietary and hydration regimen.
# Three dose cohorts of 24 subjects were evenly divided between males and females for each cohort. Subjects who were scheduled to undergo an elective colonoscopy, who met the study entrance criteria, and who gave their consent to participate in the study were enrolled. […] Each subject observed a strict diet and hydration regimen as part of the study medication administration.
# The site pharmacist prepared the L-glucose preparation based on the study medication preparation manual provided. Each subject, regardless of dose cohort, received the dose in 8 ounces of water, which was to be consumed within a 10-minute period. Dose cohorts proceeded in a dose-escalating fashion starting with the lowest dose (24 g/24 g) and escalated according to a dose escalation decision tree.
# The physician performing the colonoscopy utilized Applicant's GPA scale to evaluate the quality of bowel preparation as before suctioning and washing.
# The Residual Stool Score (RSS) described above was also used to assess bowel cleansing in each of the 5 segments of the bowel (rectum, descending colon, transverse colon, ascending colon, and cecum). As noted, assessments included the amount of stool present, the consistency of the stool, and the estimated percentage of the bowel wall visualized in each segment.
# For reasons of inadequate bowel preparation, sections of the bowel that were not directly examined during colonoscopy were rated as “poor” on all three measures listed previously.
# A total of 24 subjects were enrolled into each of the three dose cohorts. All 72 subjects were included in the intent-to-treat (ITT) and safety populations.
# [9] = 48 g/48 g dose compared with lower split doses
smiles,measurement,setting,value
O.O=C[C@@H](O)[C@H](O)[C@@H](O)[C@@H](O)CO [L-glucose monohydrate],Observations: clusters or clumping of solid,[1]; 5 min. delay,Several clusters of solid at 1 min. Final solution
same,Time of stirring until sample fully dissolved,"[1]; 5 min. delay before stirring, listed as L- glucose monohydrate^1, monohydrate",Sample fully dissolved after 2.5 min. of stirring.
same,Time of stirring until sample fully dissolved,"[1]; 5 min. delay before stirring, listed as L- glucose monohydrate^2, monohydrate",Fully dissolved after 1 min. of stirring. Final
same,Observations: appearance of final solution,"[1]; 5 min. delay, listed as L- glucose monohydrate^2, monohydrate","solution was clear, colorless and homogeneous"
same,Observations: clusters or clumping of solid,[1]; No delay,Several clusters of solid at 1 min. Final solution
same,Time of stirring until sample fully dissolved,"[1]; No delay (stirred immediately), listed as L- glucose monohydrate^1, monohydrate",Sample fully dissolved after 2.5 min. of stirring.
same,Time of stirring until sample fully dissolved,"[1]; No delay (stirred immediately), listed as L- glucose monohydrate^2, monohydrate",Fully dissolved after 2 min. of stirring. Final
same,Observations: appearance of final solution,"[1]; No delay, listed as L- glucose monohydrate^2, monohydrate","solution was clear, colorless and homogeneous"
"OC[C@@H]1OC(O)[C@@H](O)[C@H](O)[C@H]1O (stereo partly drawn) [anhydrous L-glucose, reference compound]",Observations: clusters or clumping of solid,[1]; 5 min. delay,Material clumped into a hard mass during time
same,Observations: appearance of final solution,[1]; No delay,stirring. Clear solution results with latent
O=C[C@@H](O)[C@H](O)[C@@H](O)[C@@H](O)CO [L-glucose],Subjects with colonoscopy preparation grade of excellent or good,colon [2],80%
same,Acceptability as a colonic cleanser,colon [3],not acceptable
same,Outcome of the evening-only dose arms,colon [4]; 24 g and 30 g evening only,suspended for lack of effectiveness
same,Changes in laboratory test results,colon [4]; in vivo,no clinically significant changes
same,Commonly reported adverse events,colon [4]; in vivo,generally absent or mild
same,Overall tolerance to the bowel preparation,colon [4]; in vivo,good or very good
same,Absorption from the human intestine,[5],moderately absorbed
same,Glucose or insulin response after administration,[5]; human,No significant glucose or insulin response
same,"Lower gastrointestinal symptoms (cramping, gas/flatus), mild",[5]; human,occurred in a majority of subjects
same,"Metabolism by colonic bacteria (breath hydrogen, comparable with in vitro studies)",[5]; human,colonic bacteria do not metabolize
same,"Mild upper gastrointestinal symptoms (vomiting, nausea, belching/rifting, bloating)",[5]; human,occurred in a minority of subjects
same,Effect of food restriction on the metabolism of L-glucose,[6]; in vivo,no significant effect
same,Major route of L-glucose elimination,"[6]; mice, rats, dogs, rabbits, and monkeys",urinary excretion
same,Failure rating,colon [7],20%
same,Subjects with GPA rated Excellent (clean colon or small volume of clear liquid),colon [8]; 24 g/24 g cohort,12 (50.0%) subjects (%) and 12 (50.0) subjects (%)
same,Subjects with GPA rated Fair (some semisolid stool suctioned or washed away),colon [8]; 24 g/24 g cohort,5 (20.8) subjects (%)
same,Subjects with GPA rated Good (moderate to large volume of clear to semiclear liquid),colon [8]; 24 g/24 g cohort,7 (29.2) subjects (%)
same,Subjects with GPA rated Poor (semisolid or solid stool unable to be suctioned or washed away),colon [8]; 24 g/24 g cohort,0 (0.0) subjects (%)
same,Subjects with GPA rated Excellent (clean colon or small volume of clear liquid),colon [8]; 36 g/36 g cohort,14 (58.3%) subjects (%) and 14 (58.3) subjects (%)
same,Subjects with GPA rated Fair (some semisolid stool suctioned or washed away),colon [8]; 36 g/36 g cohort,2 (8.3) subjects (%)
same,Subjects with GPA rated Good (moderate to large volume of clear to semiclear liquid),colon [8]; 36 g/36 g cohort,7 (29.2) subjects (%)
same,Subjects with GPA rated Poor (semisolid or solid stool unable to be suctioned or washed away),colon [8]; 36 g/36 g cohort,1 (4.2%) subjects (%) and 1 (4.2) subjects (%)
same,Subjects with GPA rated Excellent (clean colon or small volume of clear liquid),colon [8]; 48 g/48 g cohort,22 (91.7%) subjects (%) and 22 (91.7) subjects (%)
same,Subjects with GPA rated Fair (some semisolid stool suctioned or washed away),colon [8]; 48 g/48 g cohort,1 (4.2) subjects (%)
same,Subjects with GPA rated Good (moderate to large volume of clear to semiclear liquid),colon [8]; 48 g/48 g cohort,1 (4.2) subjects (%)
same,Subjects with GPA rated Poor (semisolid or solid stool unable to be suctioned or washed away),colon [8]; 48 g/48 g cohort,0 (0.0) subjects (%)
same,Robustness of bowel cleansing,colon [8]; [9],more robust bowel cleansing
same,Time to the first watery bowel movement,colon [8]; [9],shortest time to the first watery bowel movement
same,Subjects who had a complete colonoscopy,"colon [8]; Site 01, all dose cohorts",30 (96.8%) subjects (%)
same,Subjects with GPA rated poor,"colon [8]; Site 01, all dose cohorts",1 (3.2%) subjects (%)
same,Subjects who had a complete colonoscopy,"colon [8]; Site 02, all dose cohorts",39 (95.1%) subjects (%)
same,Subjects with GPA rated Excellent (clean colon or small volume of clear liquid),colon [8]; Total of all cohorts,48 (66.7) subjects (%)
same,Subjects with GPA rated Fair (some semisolid stool suctioned or washed away),colon [8]; Total of all cohorts,8 (11.1) subjects (%)
same,Subjects with GPA rated Good (moderate to large volume of clear to semiclear liquid),colon [8]; Total of all cohorts,15 (20.8) subjects (%)
same,Subjects with GPA rated Poor (semisolid or solid stool unable to be suctioned or washed away),colon [8]; Total of all cohorts,1 (1.4) subjects (%)
same,Subjects who had a complete colonoscopy (endoscopist able to reach the cecum),"colon [8]; in each dose cohort (24 g/24 g, 36 g/36 g, 48 g/48 g)",23 (95.8%) subjects (%)
